The subject of data set [1] is A549. Nature of the data set: Anticancer activity against human A549 cells. The data set is classed as functional, cell-based.
For data set [2], the system named is PC-3. Kind of data set: Anticancer activity against human PC-3 cells. It is filed as functional, cell-based.
The test system of data set [3] is K562. Kind of data set: Anticancer activity against human K562 cells. The data set is classed as functional, cell-based.
Data set [4] relates to HeLa. Kind of data set: Anticancer activity against human HeLa cells measured after 48 hrs by Sulforhodamine B assay. The data set is classed as functional, cell-based. Background: Sulforhodamine B stains cellular protein and so reports cell mass.
The subject of data set [5] is HCT-116. Nature of the data set: Anticancer activity against human HCT-116 cells measured after 48 hrs by Sulforhodamine B assay. As to conditions: HCT-116, 48 h. The data set is classed as functional, cell-based.
Another data set relates to T47D. Nature of the data set: Anticancer activity against human T47D cells measured after 48 hrs by Sulforhodamine B assay. The data set is classed as functional, cell-based.
For data set [6], the system named is MCF7. Kind of data set: Anticancer activity against human MCF7 cells measured after 48 hrs by Sulforhodamine B assay. The data set is classed as functional, cell-based. As to conditions: MCF7, 48 h.
For data set [7], the system named is HepG2. Kind of data set: Anticancer activity against human HepG2 cells measured after 48 hrs by Sulforhodamine B assay. As to conditions: HepG2, 48 h. It is filed as functional, cell-based.
The test system of data set [8] is MCF7. Nature of the data set: Cytotoxicity against human MCF7 cells assessed as reduction in cell growth. The data set is classed as functional, cell-based.
Another data set concerns WI-38. Kind of data set: Cytotoxicity against human WI-38 cells assessed as reduction in cell growth. The data set is classed as functional, cell-based.
A further data set concerns U-937. Nature of the data set: Antiproliferative activity against human U-937 cells measured upto 72 hrs by microscopy based analysis. It is filed as functional, cell-based. As to conditions: U-937, 72 h.
Data set [9] deals with K562. Nature of the data set: Antiproliferative activity against human K562 cells measured upto 72 hrs by microscopy based analysis. As to conditions: K562, 72 h. It is filed as functional, cell-based.
Data set [10] concerns MCF7. Kind of data set: Antiproliferative activity against human MCF7 cells incubated for 72 hrs by MTT assay. It is filed as functional, cell-based. As to conditions: MCF7, 72 h. A general note: Tetrazolium assays rely on reduction of a dye to a coloured formazan, in cell work by metabolically active cells.
For data set [11], the system named is A549. Nature of the data set: Antiproliferative activity against human A549 cells incubated for 72 hrs by MTT assay. It is filed as functional, cell-based. As to conditions: A549, 72 h.
The test system of another data set is Jurkat. Kind of data set: Antiproliferative activity against human Jurkat cells incubated for 72 hrs by MTT assay. It is filed as functional, cell-based.
Data set [12] has as its system MDA-MB-231. Nature of the data set: Antiproliferative activity against human MDA-MB-231 cells incubated for 72 hrs by MTT assay. As to conditions: MDA-MB-231, 72 h. The data set is classed as functional, cell-based.
Data set [13] has as its system HeLa. Kind of data set: Antiproliferative activity against human HeLa cells incubated for 72 hrs by MTT assay. The data set is classed as functional, cell-based.
In data set [14] the test system is HCT-116. Nature of the data set: Antiproliferative activity against human HCT-116 cells incubated for 72 hrs by MTT assay. It is filed as functional, cell-based. As to conditions: HCT-116, 72 h.
In another data set the test system is Caco-2. Nature of the data set: Antiproliferative activity against human Caco-2 cells incubated for 72 hrs by MTT assay. The data set is classed as functional, cell-based. As to conditions: Caco-2, 72 h.
For another data set, the system named is CCRF-CEM. Nature of the data set: Antiproliferative activity against human CEM cells incubated for 72 hrs by MTT assay. The data set is classed as functional, cell-based.
For a further data set, the system named is FaDu. Kind of data set: Anticancer activity against human FaDu cells. The data set is classed as functional, cell-based.
In data set [15] the test system is MCF7. Kind of data set: Cytotoxicity against human MCF7 cells by MTT assay. The data set is classed as functional, cell-based.
For data set [16], the system named is MDA-MB-231. Nature of the data set: Cytotoxicity against human MDA-MB-231 cells by MTT assay. The data set is classed as functional, cell-based.
The test system of another data set is Erythrocyte. Nature of the data set: Cytotoxicity against human Erythrocyte by MTT assay. The data set is classed as functional, cell-based.
A further data set relates to HBL. Kind of data set: Cytotoxicity against human HBL cells by MTT assay. It is filed as functional, cell-based.
Data set [17] relates to A549. Nature of the data set: Cytotoxicity against human A549 cells by MTT assay. It is filed as functional, cell-based.
Another data set has as its system HT-29. Kind of data set: Antiproliferative activity against human HT-29 cells assessed as inhibition of cell growth. The data set is classed as functional, cell-based.
Another data set deals with A2780. Kind of data set: Antiproliferative activity against human A2780 cells assessed as inhibition of cell growth. The data set is classed as functional, cell-based.
Data set [18] has as its system MCF7. Kind of data set: Antiproliferative activity against human MCF7 cells assessed as inhibition of cell growth. The data set is classed as functional, cell-based.
Data set [19] has as its system Panel NCI-60 (60 carcinoma cell lines). Kind of data set: Growth inhibition of human Panel NCI-60 (60 carcinoma cell lines) cells. The data set is classed as functional.
Data set [20] can be described thus: Cytotoxicity against human VA13 cells incubated for 72 hrs by MTT assay. The data set is classed as toxicity, cell-based. As to conditions: VA13 (WI-38 VA13) cells.
Data set [21] relates to MCF7. Nature of the data set: Cytotoxicity against human MCF7 cells incubated for 72 hrs by MTT assay. As to conditions: MCF7, 72 h. The data set is classed as functional, cell-based.
The test system of data set [22] is A549. Nature of the data set: Cytotoxicity against human A549 cells incubated for 72 hrs by MTT assay. As to conditions: A549, 72 h. The data set is classed as functional, cell-based.
Data set [23] is described as follows: Cytotoxicity against HEK293T cells incubated for 72 hrs by MTT assay. The data set is classed as toxicity, cell-based, HEK-293T. As to conditions: human.
For data set [24], the system named is HepG2. Nature of the data set: Anticancer activity against human HepG2 cells assessed as reduction in cell viability. The data set is classed as functional, cell-based.
Data set [25] concerns MCF7. Nature of the data set: Anticancer activity against human MCF7 cells assessed as reduction in cell viability. The data set is classed as functional, cell-based.
Data set [26] concerns MDA-MB-231. Kind of data set: Cytotoxicity against human MDA-MB-231 cells at 50 ug/ml relative to control. The data set is classed as functional. As to conditions: dose 50 µg/ml.
For another data set, the system named is L929. Kind of data set: Cytotoxicity against mouse L929 cells at 50 ug/ml relative to control. The data set is classed as toxicity, cell-based. As to conditions: at 50 µg/mL.
Data set [27] relates to PC-3. Kind of data set: Growth inhibition of human PC-3 cells assessed as reduction in cell viability by SRB assay. It is filed as functional.
Another data set concerns COLO 205. Nature of the data set: Growth inhibition of human COLO 205 cells assessed as reduction in cell viability by SRB assay. The data set is classed as functional.
The test system of data set [28] is MCF7. Nature of the data set: Growth inhibition of human MCF7 cells assessed as reduction in cell viability by SRB assay. It is filed as functional.
Data set [29] can be described thus: Anticancer activity against […] 3T3 cells. It is filed as functional, cell-based. As to conditions: NIH3T3.
The test system of data set [30] is HeLa. Kind of data set: Anticancer activity against human HeLa cells assessed as inhibition of cell viability. It is filed as functional, cell-based.
The subject of data set [31] is MCF7. Nature of the data set: Cytotoxicity against human MCF7 cells incubated overnight by MTT assay. The data set is classed as functional, cell-based.
In data set [32] the test system is HepG2. Kind of data set: Cytotoxicity against human HepG2 cells incubated overnight by MTT assay. It is filed as functional, cell-based.
For data set [33], the system named is HCT-116. Kind of data set: Cytotoxicity against human HCT-116 cells incubated overnight by MTT assay. It is filed as functional, cell-based.

Converted amounts (≈) assume the structure as drawn. Bounds are passed on as bounds.

Usually IC50 stands for the point on the concentration scale where inhibition reaches its midpoint. On to `CCN(CC)C[C@@]1([C@H]2c3ccccc3[C@@H](O)[C@]23C(=O)N(Cc2ccccc2)c2ccccc23)C(=O)N(Cc2ccccc2)c2ccccc21`, for which the IC50 in the data set with A549 [1] was 18.1 µM; in the data set with PC-3 [2] it was 17.7 µM; in the data set with K562 [3] it was 7.4 µM.

For `COc1ccc2c(c1)[C@]1(C(=O)N2)N(C)C[C@@H](c2ccc(F)cc2)[C@@]12CN(C)C/C(=C\c1ccc(F)cc1)C2=O`, the IC50 in the data set with HeLa [4] is 2.88 µM; in the data set with HCT-116 [5], 2.86 µM; in the data set with T47D it was 2.98 µM; with MCF7 [6] it was 3.1 µM; with HepG2 [7], 3.08 µM.

On to `CN1N=C(c2ccc(Cl)c(Cl)c2)C2C(CSC23CCCN3CCOCC(=O)NN)C1=O` (stereo not given), for which the IC50 with MCF7 [8] amounted to 7.72 µM; with WI-38, 10.4 µM.

Consider `O=C1CC(c2ccccc2)C2(C(=O)Oc3ccccc3C2=O)C(c2ccccc2)C1` (stereo not given), for which the IC50 in the data set on U-937 was found to be 51.6 µM; in the data set with K562 [9], 74 µM.

As for `CON1c2ccccc2[C@@]2(CN=C(Nc3cc(C(F)(F)F)cc(C(F)(F)F)c3)S2)[C@@H]1Nc1cc(C(F)(F)F)cc(C(F)(F)F)c1`, the IC50 in the data set on MCF7 [10] turned out to be 2 µM; in the data set with A549 [11], 2 µM; with Jurkat it was 2 µM; with MDA-MB-231 [12], 4 µM; in the data set on HeLa [13], 3 µM; in the data set with HCT-116 [14], 65.1 µM. Moreover, the IC50 in the data set with Caco-2 came to 47 µM; in the data set on CCRF-CEM, 5 µM.

Compound `Cc1ccccc1/C=C1\CN(/C=C/c2ccccc2)C[C@]2(C1=O)[C@H](c1ccccc1C)[C@@H](Cc1ccccc1)N[C@]21C(=O)Nc2ccccc21` had an IC50 in the data set on FaDu of 21 µM.

On to `Cc1ccc2c(c1)C1(CC(=O)C=NO1)C(=O)N2` (stereo not given), for which the IC50 is above 30 µM in the data set with MCF7 [15]; 0.34 µM in the data set on MDA-MB-231 [16]; above 100 µM in the data set on Erythrocyte; above 100 µM in the data set on HBL; 13.2 µM in the data set with A549 [17].

As for `O=C1/C(=C/c2ccccc2)CN(/C=C/c2ccccc2)C[C@@]12[C@H](c1ccccc1)[C@@H](Cc1ccccc1)N[C@]21C(=O)Nc2ccccc21`, the IC50 in the data set with FaDu was 19 µM.

In the case of `O=C1CC2(CCN(S(=O)(=O)c3cccc4ccccc34)CC2)Oc2ccccc21`, the IC50 in the data set with HT-29 was 0.69 µM; with A2780, 0.316 µM; in the data set with MCF7 [18] it was 6.02 µM.

For orientation: GI50 means the concentration giving 50% growth inhibition. As for `C1=CC2=CC3CCCC4=Cc5ccccc5OC43OC2C=C1` (stereo not given), the GI50 in data set [19] is below 10 µM.

Take `CON1c2ccccc2[C@@]2(CN=C(Nc3cc(C(F)(F)F)cc(C(F)(F)F)c3)S2)[C@H]1Nc1cc(C(F)(F)F)cc(C(F)(F)F)c1`: the IC50 with MCF7 [10] was found to be 2 µM; with A549 [11], 2.5 µM; in the data set on Jurkat, 2 µM; in the data set on MDA-MB-231 [12] it was 3.5 µM; in the data set with HeLa [13], 2.5 µM; with HCT-116 [14] it was 43.9 µM. Also, the IC50 in the data set on Caco-2 was 19.7 µM; with CCRF-CEM, 1 µM.

`CN1C[C@H](c2ccc(F)cc2)[C@]2(NC(=O)NC2=O)C12C(=O)Nc1ccccc12` (stereo not given in full): the IC50 at 72 h in [20] worked out at 20.8 µM; in [23] it was 14.3 µM. In addition, the IC50 in the data set with MCF7 [21] worked out at 18.3 µM; in the data set with A549 [22], 7.5 µM.

Turning to `N#Cc1c(N)nc2c(c1-c1ccc(Cl)cc1)SC1(CCCCC1)N2c1ccc(N)cc1`, the results for the concentration for half-maximal inhibition (IC50) in the data set with HepG2 [24] and in the data set with MCF7 [25] were 14.3 µg/mL (≈ 31.9 µM) and 30 µg/mL (≈ 67 µM), respectively.

With `CN1CCN(Cc2ccc([N+](=O)[O-])cc2)P12=NP(N1CCCCC1)(N1CCCCC1)=NP(N1CCCCC1)(N1CCCCC1)=N2` (stereo not given), the Activity was determined as 30% with MDA-MB-231 [26] and 70% with L929.

Take `COP1(=O)N(C)N=NC12SC1=CCCCC1=C2C#N` (stereo not given): the GI50 stood at 12.4 µM in the data set with PC-3 [27], 18.4 µM in the data set on COLO 205 and 6.35 µM in the data set with MCF7 [28].

On to `O=C(c1ccc(F)cc1)C1C(c2ccc(Cl)cc2Cl)C2CSCN2C12C(=O)Nc1ccccc12` (stereo not given), for which the IC50 in [29] turned out to be 21.2 µM; in the data set with HeLa [30], 11.2 µM.

For the compound `O=C(/C=C/c1ccc(Br)cc1)[C@H]1[C@H](c2ccc(Br)cc2)C2CSCN2[C@]12C(=O)Nc1cc(Br)c(Br)cc12` (stereo not given in full), the IC50 in the data set with MCF7 [31] was determined as 2.5 µM; in the data set on HepG2 [32], 50 µM; with HCT-116 [33] it was 2.2 µM.

Source of the values: ChEMBL document CHEMBL5233269, “Anticancer potential of spirocompounds in medicinal chemistry: A pentennial expedition” (Eur J Med Chem, 2021).
